# According to PMC8800111 (The Journal of Biological Chemistry, 2021):
# Assays:
# Type in all cases: cell-based
# [1] = biological target: proteins of U3A human fibrosarcoma cells (4462 proteins detected) (Homo sapiens, UniProt Q9H832); conditions: protein UBE2Z; U3A, 10 μM, 2 h
# [2] = biological target: proteins of U3A human fibrosarcoma cells (4462 proteins detected) (Homo sapiens, UniProt P51659); conditions: protein HSD17B4; U3A cells
# [3] = biological target: proteins of U3A human fibrosarcoma cells (4462 proteins detected) (Homo sapiens, UniProt P07602); conditions: protein PSAP; soluble abundance after heat, U3A cells
# [4] = biological target: proteins of U3A human fibrosarcoma cells (4462 proteins detected) (Homo sapiens, UniProt P31949); conditions: protein S100A11, U3A cells
# [5] = biological target: proteins of U3A human fibrosarcoma cells (4462 proteins detected) (Homo sapiens, UniProt Q9H0A8); conditions: protein COMMD4; U3A cells
# [6] = biological target: proteins of U3A human fibrosarcoma cells (4462 proteins detected) (Homo sapiens, UniProt Q92888); conditions: protein ARHGEF1; U3A cells
# [7] = biological target: proteins of U3A human fibrosarcoma cells (4462 proteins detected) (Homo sapiens, UniProt O43402); conditions: protein EMC8; soluble abundance after heat, U3A cells
# [8] = biological target: proteins of U3A human fibrosarcoma cells (4462 proteins detected) (Homo sapiens, UniProt P49321); conditions: protein NASP, U3A cells
# [9] = biological target: proteins of U3A human fibrosarcoma cells (4462 proteins detected) (Homo sapiens, UniProt Q6V1X1); conditions: protein DPP8; U3A cells
# [10] = biological target: proteins of U3A human fibrosarcoma cells (4462 proteins detected) (Homo sapiens, UniProt P28799); conditions: protein GRN; U3A cells
# [11] = biological target: proteins of U3A human fibrosarcoma cells (4462 proteins detected) (Homo sapiens, UniProt Q9UL16); conditions: protein CFAP45, U3A cells
# [12] = biological target: proteins of U3A human fibrosarcoma cells (4462 proteins detected) (Homo sapiens, UniProt Q03252); conditions: protein LMNB2; U3A cells
# [13] = biological target: proteins of U3A human fibrosarcoma cells (4462 proteins detected) (Homo sapiens, UniProt Q8N4Q1); conditions: protein CHCHD4; soluble abundance after heat, U3A cells
# [14] = biological target: proteins of U3A human fibrosarcoma cells (4462 proteins detected) (Homo sapiens, UniProt Q7Z6B0); conditions: protein CCDC91, U3A cells
# [15] = biological target: proteins of U3A human fibrosarcoma cells (4462 proteins detected) (Homo sapiens, UniProt Q6SJ93); conditions: protein FAM111B; U3A cells
# [16] = biological target: proteins of U3A human fibrosarcoma cells (4462 proteins detected) (Homo sapiens, UniProt Q8IVL0); conditions: protein NAV3, U3A cells
# [17] = biological target: proteins of U3A human fibrosarcoma cells (4462 proteins detected) (Homo sapiens, UniProt P48507); conditions: protein GCLM; U3A cells
# [18] = biological target: proteins of U3A human fibrosarcoma cells (4462 proteins detected) (Homo sapiens, UniProt Q9BQP7); conditions: protein MGME1; soluble abundance after heat, U3A cells
# [19] = biological target: proteins of U3A human fibrosarcoma cells (4462 proteins detected) (Homo sapiens, UniProt Q16637); conditions: protein SMN1; SMN2; U3A, 10 μM, 2 h
# [20] = biological target: proteins of U3A human fibrosarcoma cells (4462 proteins detected) (Homo sapiens, UniProt Q12893); conditions: protein TMEM115; U3A, 10 μM, 2 h
# [21] = biological target: proteins of U3A human fibrosarcoma cells (4462 proteins detected) (Homo sapiens, UniProt P23396); conditions: protein RPS3; soluble abundance after heat, U3A cells
# [22] = biological target: proteins of U3A human fibrosarcoma cells (4462 proteins detected) (Homo sapiens, UniProt O14964); conditions: protein HGS; U3A cells
# [23] = biological target: proteins of U3A human fibrosarcoma cells (4462 proteins detected) (Homo sapiens, UniProt P09972); conditions: protein ALDOC, U3A cells
# [24] = biological target: proteins of U3A human fibrosarcoma cells (4462 proteins detected) (Homo sapiens, UniProt A0FGR8); conditions: protein ESYT2; U3A, 10 μM, 2 h
# [25] = biological target: proteins of U3A human fibrosarcoma cells (4462 proteins detected) (Homo sapiens, UniProt P49915); conditions: protein GMPS; soluble abundance after heat, U3A cells
# [26] = biological target: proteins of U3A human fibrosarcoma cells (4462 proteins detected) (Homo sapiens, UniProt Q8TDD1); conditions: protein DDX54; U3A, 10 μM, 2 h
# [27] = biological target: proteins of U3A human fibrosarcoma cells (4462 proteins detected) (Homo sapiens, UniProt Q15468); conditions: protein STIL; U3A, 10 μM, 2 h
# [28] = biological target: proteins of U3A human fibrosarcoma cells (4462 proteins detected) (Homo sapiens, UniProt Q9UMS4); conditions: protein PRPF19; U3A cells
# [29] = biological target: proteins of U3A human fibrosarcoma cells (4462 proteins detected) (Homo sapiens, UniProt O15164); conditions: protein TRIM24; U3A cells
# proteins of U3A human fibrosarcoma cells (4462 proteins detected) (Homo sapiens, UniProt Q8N4Q1), sequence (Q8N4Q1 whole entry): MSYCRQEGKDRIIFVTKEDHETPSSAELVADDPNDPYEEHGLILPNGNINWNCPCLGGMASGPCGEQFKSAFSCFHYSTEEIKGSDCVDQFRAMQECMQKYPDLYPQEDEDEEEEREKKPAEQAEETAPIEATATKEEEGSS
# proteins of U3A human fibrosarcoma cells (4462 proteins detected) (Homo sapiens, UniProt P07602), sequence (P07602 60-524): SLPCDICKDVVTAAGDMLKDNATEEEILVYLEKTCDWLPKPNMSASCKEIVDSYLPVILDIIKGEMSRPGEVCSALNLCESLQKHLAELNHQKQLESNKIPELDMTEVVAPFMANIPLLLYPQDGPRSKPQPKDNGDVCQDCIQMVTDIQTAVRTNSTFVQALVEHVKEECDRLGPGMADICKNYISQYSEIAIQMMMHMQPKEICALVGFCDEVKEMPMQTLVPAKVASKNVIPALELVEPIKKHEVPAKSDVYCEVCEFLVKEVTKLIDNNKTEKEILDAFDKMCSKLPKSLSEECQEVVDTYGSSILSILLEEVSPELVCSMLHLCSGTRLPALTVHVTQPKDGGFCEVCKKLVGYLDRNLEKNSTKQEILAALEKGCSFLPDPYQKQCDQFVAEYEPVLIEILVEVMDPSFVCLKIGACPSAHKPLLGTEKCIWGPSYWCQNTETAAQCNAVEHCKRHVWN
# proteins of U3A human fibrosarcoma cells (4462 proteins detected) (Homo sapiens, UniProt O14964), sequence (O14964 whole entry): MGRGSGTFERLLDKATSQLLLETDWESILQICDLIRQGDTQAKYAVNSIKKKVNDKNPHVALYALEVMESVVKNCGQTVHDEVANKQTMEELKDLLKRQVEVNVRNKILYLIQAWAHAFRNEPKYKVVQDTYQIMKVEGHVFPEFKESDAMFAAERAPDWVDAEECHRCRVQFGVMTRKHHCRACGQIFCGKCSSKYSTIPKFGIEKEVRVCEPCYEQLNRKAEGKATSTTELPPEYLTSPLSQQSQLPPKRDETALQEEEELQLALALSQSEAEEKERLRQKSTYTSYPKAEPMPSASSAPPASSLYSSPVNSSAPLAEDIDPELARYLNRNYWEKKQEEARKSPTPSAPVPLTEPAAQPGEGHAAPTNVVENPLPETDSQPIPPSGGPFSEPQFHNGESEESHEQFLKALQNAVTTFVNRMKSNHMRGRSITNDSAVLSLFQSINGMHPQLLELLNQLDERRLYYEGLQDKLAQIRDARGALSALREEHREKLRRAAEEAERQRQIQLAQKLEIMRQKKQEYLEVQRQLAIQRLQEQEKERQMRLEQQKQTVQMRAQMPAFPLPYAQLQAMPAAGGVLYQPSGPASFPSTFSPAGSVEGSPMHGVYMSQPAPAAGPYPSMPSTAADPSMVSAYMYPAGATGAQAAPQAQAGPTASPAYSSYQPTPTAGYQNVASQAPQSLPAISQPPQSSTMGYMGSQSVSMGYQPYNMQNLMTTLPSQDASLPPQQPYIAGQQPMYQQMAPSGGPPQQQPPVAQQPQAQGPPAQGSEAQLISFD
# proteins of U3A human fibrosarcoma cells (4462 proteins detected) (Homo sapiens, UniProt P48507), sequence (P48507 whole entry): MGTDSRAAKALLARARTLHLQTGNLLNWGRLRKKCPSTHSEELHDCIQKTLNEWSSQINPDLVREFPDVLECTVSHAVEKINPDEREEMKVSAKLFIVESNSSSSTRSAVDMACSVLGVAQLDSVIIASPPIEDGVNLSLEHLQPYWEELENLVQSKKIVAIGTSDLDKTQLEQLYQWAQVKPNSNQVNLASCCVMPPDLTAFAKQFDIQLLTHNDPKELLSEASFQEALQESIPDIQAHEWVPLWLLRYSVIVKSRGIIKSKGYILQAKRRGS
# proteins of U3A human fibrosarcoma cells (4462 proteins detected) (Homo sapiens, UniProt Q8IVL0), sequence (Q8IVL0 whole entry): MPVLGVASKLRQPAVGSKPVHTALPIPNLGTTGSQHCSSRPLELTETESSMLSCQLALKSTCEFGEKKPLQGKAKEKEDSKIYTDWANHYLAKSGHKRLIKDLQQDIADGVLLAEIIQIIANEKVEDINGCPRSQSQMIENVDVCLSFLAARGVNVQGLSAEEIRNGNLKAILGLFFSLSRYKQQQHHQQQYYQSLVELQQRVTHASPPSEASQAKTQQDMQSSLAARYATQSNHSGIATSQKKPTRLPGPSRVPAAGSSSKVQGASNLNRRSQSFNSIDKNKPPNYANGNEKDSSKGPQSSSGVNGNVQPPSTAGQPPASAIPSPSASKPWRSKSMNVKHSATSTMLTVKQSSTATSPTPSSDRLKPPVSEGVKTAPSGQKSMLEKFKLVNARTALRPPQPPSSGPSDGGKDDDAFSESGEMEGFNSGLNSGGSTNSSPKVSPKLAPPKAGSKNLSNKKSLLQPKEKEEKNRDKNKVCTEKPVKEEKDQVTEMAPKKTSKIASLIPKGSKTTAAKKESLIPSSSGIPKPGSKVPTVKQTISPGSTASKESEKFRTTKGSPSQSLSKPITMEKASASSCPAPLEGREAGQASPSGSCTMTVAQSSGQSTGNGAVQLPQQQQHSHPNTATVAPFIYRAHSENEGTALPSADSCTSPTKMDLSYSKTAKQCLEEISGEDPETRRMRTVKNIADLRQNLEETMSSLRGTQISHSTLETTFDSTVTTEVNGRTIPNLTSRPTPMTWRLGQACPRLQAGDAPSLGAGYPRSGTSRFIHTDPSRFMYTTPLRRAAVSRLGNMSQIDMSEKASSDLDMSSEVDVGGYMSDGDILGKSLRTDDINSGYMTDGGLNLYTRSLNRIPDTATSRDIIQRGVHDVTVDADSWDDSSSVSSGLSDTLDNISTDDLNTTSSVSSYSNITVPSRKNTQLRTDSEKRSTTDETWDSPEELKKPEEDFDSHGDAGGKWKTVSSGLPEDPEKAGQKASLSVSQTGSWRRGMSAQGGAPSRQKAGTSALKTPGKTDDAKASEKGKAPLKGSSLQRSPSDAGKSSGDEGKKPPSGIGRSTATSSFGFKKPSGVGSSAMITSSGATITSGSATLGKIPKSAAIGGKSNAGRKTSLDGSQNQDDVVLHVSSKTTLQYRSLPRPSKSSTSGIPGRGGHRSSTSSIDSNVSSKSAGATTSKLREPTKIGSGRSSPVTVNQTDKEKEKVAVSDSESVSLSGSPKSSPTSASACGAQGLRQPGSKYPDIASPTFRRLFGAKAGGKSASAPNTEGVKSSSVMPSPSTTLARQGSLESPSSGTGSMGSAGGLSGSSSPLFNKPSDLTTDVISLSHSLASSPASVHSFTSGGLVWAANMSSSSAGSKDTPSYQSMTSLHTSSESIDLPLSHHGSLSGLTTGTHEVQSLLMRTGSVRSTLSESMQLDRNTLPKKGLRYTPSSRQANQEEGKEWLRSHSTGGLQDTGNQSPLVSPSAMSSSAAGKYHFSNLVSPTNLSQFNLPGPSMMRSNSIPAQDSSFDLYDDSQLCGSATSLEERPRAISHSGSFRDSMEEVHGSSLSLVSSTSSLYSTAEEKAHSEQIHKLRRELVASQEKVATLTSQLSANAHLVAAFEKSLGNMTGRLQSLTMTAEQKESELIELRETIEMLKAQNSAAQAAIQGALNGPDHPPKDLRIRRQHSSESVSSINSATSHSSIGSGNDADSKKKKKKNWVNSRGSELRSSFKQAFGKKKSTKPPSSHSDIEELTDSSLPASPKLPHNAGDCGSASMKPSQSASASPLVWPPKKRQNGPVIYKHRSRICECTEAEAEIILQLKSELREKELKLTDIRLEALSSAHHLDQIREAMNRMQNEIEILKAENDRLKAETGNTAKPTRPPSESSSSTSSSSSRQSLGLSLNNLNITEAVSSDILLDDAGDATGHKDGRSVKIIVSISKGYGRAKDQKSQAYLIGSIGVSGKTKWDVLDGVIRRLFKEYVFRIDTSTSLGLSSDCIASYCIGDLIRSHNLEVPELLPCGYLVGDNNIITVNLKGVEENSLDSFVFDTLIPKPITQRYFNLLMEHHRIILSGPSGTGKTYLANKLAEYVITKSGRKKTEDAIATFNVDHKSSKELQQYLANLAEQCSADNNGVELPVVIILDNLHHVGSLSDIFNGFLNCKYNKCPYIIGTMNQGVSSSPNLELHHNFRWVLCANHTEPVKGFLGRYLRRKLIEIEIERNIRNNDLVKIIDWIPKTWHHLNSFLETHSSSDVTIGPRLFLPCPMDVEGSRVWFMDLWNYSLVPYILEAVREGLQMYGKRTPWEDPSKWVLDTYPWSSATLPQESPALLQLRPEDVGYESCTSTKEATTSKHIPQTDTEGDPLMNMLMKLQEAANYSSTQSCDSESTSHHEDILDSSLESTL
# proteins of U3A human fibrosarcoma cells (4462 proteins detected) (Homo sapiens, UniProt Q6SJ93), sequence (Q6SJ93 whole entry): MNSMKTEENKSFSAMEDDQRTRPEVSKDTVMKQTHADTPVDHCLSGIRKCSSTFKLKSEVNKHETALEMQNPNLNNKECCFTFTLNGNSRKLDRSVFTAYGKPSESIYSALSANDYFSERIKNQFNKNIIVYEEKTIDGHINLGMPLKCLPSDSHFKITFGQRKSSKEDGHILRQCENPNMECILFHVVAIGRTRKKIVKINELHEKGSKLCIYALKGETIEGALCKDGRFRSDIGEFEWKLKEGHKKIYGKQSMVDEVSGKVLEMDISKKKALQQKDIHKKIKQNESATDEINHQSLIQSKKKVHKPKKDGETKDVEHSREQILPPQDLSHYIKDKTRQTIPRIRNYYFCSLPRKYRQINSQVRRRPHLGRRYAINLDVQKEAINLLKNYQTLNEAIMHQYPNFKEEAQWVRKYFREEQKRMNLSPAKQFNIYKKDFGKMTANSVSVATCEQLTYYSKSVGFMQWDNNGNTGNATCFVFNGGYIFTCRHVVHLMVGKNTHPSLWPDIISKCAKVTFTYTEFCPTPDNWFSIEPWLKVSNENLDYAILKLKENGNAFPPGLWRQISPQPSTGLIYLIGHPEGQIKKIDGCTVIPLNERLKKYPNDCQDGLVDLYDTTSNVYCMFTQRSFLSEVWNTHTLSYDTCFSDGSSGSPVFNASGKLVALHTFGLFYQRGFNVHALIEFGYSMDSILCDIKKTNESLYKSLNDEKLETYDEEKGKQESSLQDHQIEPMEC
# proteins of U3A human fibrosarcoma cells (4462 proteins detected) (Homo sapiens, UniProt Q9H0A8), sequence (Q9H0A8 whole entry): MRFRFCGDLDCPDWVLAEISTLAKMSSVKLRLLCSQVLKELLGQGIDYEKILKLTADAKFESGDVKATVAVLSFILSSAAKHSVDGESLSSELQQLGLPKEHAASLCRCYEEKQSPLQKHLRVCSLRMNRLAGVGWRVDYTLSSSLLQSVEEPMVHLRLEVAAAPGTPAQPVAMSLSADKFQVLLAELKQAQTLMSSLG
structure (smiles),measurement,setting,value
CCc1nc(N)nc(N)c1-c1ccc(Cl)cc1 [pyrimethamine],"Log2 (PYR/DMSO), UBE2Z",[1],0.25
same,Log2 (PYR/DMSO),[2],0.17
same,Log2 (PYR/DMSO),[3],0.15
same,Log2 (PYR/DMSO),[4],-0.04
same,Log2 (PYR/DMSO),[5],0.21
same,Log2 (PYR/DMSO),[6],0.18
same,Log2 (PYR/DMSO),[7],0.15
same,Log2 (PYR/DMSO),[8],-0.04
same,Log2 (PYR/DMSO),[9],0.16
same,Log2 (PYR/DMSO),[10],0.21
same,Log2 (PYR/DMSO),[11],-0.04
same,Log2 (PYR/DMSO),[12],0.19
same,Log2 (PYR/DMSO),[13],0.14
same,Log2 (PYR/DMSO),[14],-0.04
same,Log2 (PYR/DMSO),[15],0.20
same,Log2 (PYR/DMSO),[16],-0.04
same,Log2 (PYR/DMSO),[17],0.20
same,Log2 (PYR/DMSO),[18],0.14
same,"Log2 (PYR/DMSO), SMN1; SMN2",[19],-0.18
same,"Log2 (PYR/DMSO), TMEM115",[20],0.38
same,Log2 (PYR/DMSO),[21],0.13
same,Log2 (PYR/DMSO),[22],0.16
same,Log2 (PYR/DMSO),[23],-0.04
same,"Log2 (PYR/DMSO), ESYT2",[24],0.33
same,Log2 (PYR/DMSO),[25],0.14
same,"Log2 (PYR/DMSO), DDX54",[26],0.25
same,"Log2 (PYR/DMSO), STIL",[27],0.35
same,Log2 (PYR/DMSO),[28],0.17
same,Log2 (PYR/DMSO),[29],0.16
